{"source": "patent US6900200B2", "about": "“Tricyclic hydroxy carboxamides and derivatives thereof tocolytic oxytocin receptor antagonists” (Wyeth, priority 2001, dated 2005)", "data": [{"target": "T1, human oxytocin receptor (Homo sapiens, UniProt P30559)", "T1 construct": "host or cells: CHO cells, pcDNA3.1 vector", "T1 sequence (P30559 1-389)": "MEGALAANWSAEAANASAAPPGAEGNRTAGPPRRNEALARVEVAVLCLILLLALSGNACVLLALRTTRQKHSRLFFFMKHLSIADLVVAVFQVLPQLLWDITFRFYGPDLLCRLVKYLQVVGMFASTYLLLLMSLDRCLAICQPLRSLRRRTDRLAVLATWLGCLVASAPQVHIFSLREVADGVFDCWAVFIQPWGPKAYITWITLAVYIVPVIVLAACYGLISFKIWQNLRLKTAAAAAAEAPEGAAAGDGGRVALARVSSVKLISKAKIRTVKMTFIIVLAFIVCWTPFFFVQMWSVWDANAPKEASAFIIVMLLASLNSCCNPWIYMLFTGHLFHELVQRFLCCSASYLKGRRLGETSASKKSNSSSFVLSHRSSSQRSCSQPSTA", "assay": "Oxytocin binding in CHO cell membranes expressing human oxytocin receptors ([3H]oxytocin radioligand binding)", "conditions": "@ 100 nM, read-out: OT % inhibition @ 100 nM", "excerpt": "(§1) Oxytocin Binding in Chinese Hamster Ovary Cell Membranes Expressing Human Oxytocin Receptors\n(§2) Chinese Hamster Ovary (CHO) cells stably transfected with the human oxytocin receptor (cf. Tanizawa et al., U.S. Pat. No. 5,466,584 (1995) to Rohto Pharmaceutical Co. Ltd., Osaka, Japan) were obtained from M. Thibonnier, Case Western Reserve University School of Medicine, Cleveland, Ohio.\n(§3) A. Passaging and Amplification of Cells\n(§4) CHO cells transfected with the human oxytocin receptors obtained from M. Thibonnier (pcDNA3.1 vector) are allowed to grow to confluency (approx. >90%) in T-150 flasks under sterile conditions, in a cell culture medium of F-12 Nutrient Mixture (HAM) with L-glutamine (Gibco Cat. #11765-054) containing 15 mM HEPES (Gibco Cat. #15630-080), 1% antibiotic/antimycotic (add 5 mL 100×, Gibco Cat. #15240-062 per 500 mL F-12), 400 μg/mL of Geneticin (add 4 mL of 50 mg/mL per 500 mL F-12) and 10% Fetal Bovine Serum (Qualified, heat inactivated, Gibco Cat. #16140-063). The medium is removed by aspiration and the cells are washed with 10 mL of Hank's Balanced Salt solution (Gibco Cat. #14175-095). The salt solution is removed by aspiration and the cells trypsinized with 5 mL of trypsin-EDTA (0.05% trypsin, 0.53 mM EDTA-4Na, Gibco Cat. #25300-070) for 1 min. The trypsin is removed by aspiration and the cells dislodged by tapping. Cell Culture medium (e.g. 30 mL for 1:30 split) is immediately added and mixed well to inactivate trypsin. 1 mL of detached cells is added to new culture flasks containing fresh Cell Culture medium (e.g. into 25 mL per T-150 flask), and mixed gently. The cells are incubated at 37° C. in 5% CO2. The medium is changed at 3 to 4 days interval (or as appropriate). The cells grow to confluency (approx. >75%-95%) within 7-8 days. All steps are done under sterile conditions.\n(§5) The cells are washed twice gently with Hank's Balanced Salt solution (e.g., use 10 mL per T-1 50 flask). The excess solution is removed and the cells bathed for 15-30 min. in an enzyme-free Cell Dissociation Buffer (e.g., use 8 mL Hank's Based, Gibco Cat. #13150-016 per T-150 flask) until cells are loosened. The contents are transferred to centrifuge tubes (50 mL size) kept in ice bath. All subsequent steps are done at 4° C. The tubes are centrifuged at 300×g for 15 min (1380 rpm on SORVAL, Model RT6000D, using rotor for 50 mL tubes). The supernatant is discarded and the cells suspended in homogenizing buffer (10 mM Tris-HCl containing 0.25 M sucrose and 1 mM EDTA, pH 7.4) ensuring that the volume of the buffer is about ten times the volume of the cell pellet. The cells are pooled into a centrifuge tube (50 mL) and homogenized with a Polytron at setting 6 for 10 sec. The homogenate is transferred into a Potter-Elvjehm homogenizer and homogenized with 3 strokes. The homogenate is centrifuged at 1500×g for 10 min at 4° C. (3100 rpm using SORVAL, model RT6000D, using rotor for 50 mL tubes). The pellet is discarded. The supernatant is centrifuged at 100,000×g for 60 min. at 4° C. (Beckman L8-80M ultracentrifuge; spin at 37,500 rpm with rotor type 70 Ti for 50 mL tubes; 38,000 rpm with type 80Ti for 15 mL tubes; or 35,800 rpm with rotor type 45Ti). The supernantant is discarded and the pellet suspended in 3 to 4 mL of Tris buffer (50 mM TRIS—HCl, pH 7.4). The protein content is estimated by the Bradford or Lowry method. The volume of the membrane suspension is adjusted with the membrane buffer (50 mM Tris-HCl containing 0.1% BSA and 0.1 mM PMSF) to give 3.0 mg/mL (or as appropriate) of protein. The membranes are aliquoted and stored at −70° C.\n(§6) C. Radioligand Binding Assay\n(§7) In wells of a 96-well format microtiter plate, is added 90, 110 or 130 μL (to make up a final volume of 200 μL) of assay buffer containing 50 mM of Tris-HCl (pH 7.4), […], 1 mg % aprotinin, 1 mg % leupeptin, 2 mg % 1,10-phenanthroline, 10 mg % trypsin inhibitor, and 0.1 mM PMSF. […]", "units": {"inhibition at 0.1 µM": "%"}, "values": [{"molecule": "COc1ccccc1-c1ccc(C(=O)N2Cc3ccc(C(=O)N4CCN(CCO)CC4)n3Cc3ccccc32)cc1C", "note": "[Example 40, [4-(2-Hydroxyethyl)-1-piperazinyl]{10-[(2′-methoxy-2-methyl[1,1′-biphenyl]-4yl)carbonyl]-10,11-dihydro-5H-pyrrolo[2,1-c][1,4]benzodiazepin-3-yl}methanone]", "inhibition at 0.1 µM": 93}, {"molecule": "COc1cccc(-c2ccc(C(=O)N3Cc4ccc(C(=O)N5CCN(CCO)CC5)n4Cc4ccccc43)cc2C)c1", "note": "[Example 44, [4-(2-Hydroxyethyl)-1-piperazinyl]{10-[(3′-methoxy-2-methyl[1,1′-biphenyl]-4yl)carbonyl]-10,11-dihydro-5H-pyrrolo[2,1-c][1,4]benzodiazepin-3-yl}methanone]", "inhibition at 0.1 µM": 83}, {"molecule": "COc1cc(C(=O)N2Cc3ccc(C(=O)N4CCN(CCO)CC4)n3Cc3ccccc32)ccc1-c1cccc2ccccc12", "note": "[Example 41, [4-(2-Hydroxyethyl)-1-piperazinyl]{10-[3-methoxy-4-(1-naphthyl)benzoyl]-10,11-dihydro-5H-pyrrolo[2,1-c][1,4]benzodiazepin-3-yl}methanone]", "inhibition at 0.1 µM": 71}]}, {"target": "T1, human oxytocin receptor", "assay": "Oxytocin binding in CHO cell membranes expressing human oxytocin receptors ([3H]oxytocin radioligand binding)", "conditions": "value printed in parentheses, read-out: OT (IC50)", "excerpt": "as §1, §2, §3, §4, §5, §6, §7", "units": {"IC50": "nM"}, "values": [{"molecule": "COc1ccccc1-c1ccc(C(=O)N2Cc3ccc(C(=O)N(C)CC(O)CO)n3Cc3ccccc32)cc1C", "note": "(centres unmarked) [Example 14, 10-[(2′-Methoxy-2-methyl-[1,1′-biphenyl]-4-yl)carbonyl]-10,11-dihydro-5H-pyrrolo[2,1-c][1,4]benzodiazepine-3-carboxylic acid (2,3-dihydroxy-propyl)-methyl-amide]", "IC50": 1.9}, {"molecule": "COc1cc(C(=O)N2Cc3ccc(C(=O)N(C)C[C@@H](O)[C@H](O)[C@H](O)[C@@H](O)CO)n3Cc3ccccc32)ccc1-c1ccccc1C(F)(F)F", "note": "(stereo in doubt) [Example 23, 10-{[2-Methoxy-2′-trifluoromethyl-[1,1′-biphenyl]-4-yl]carbonyl}-N-methyl-N-[(2R,3S,4R,5S)-2,3,4,5,6-pentahydroxyhexyl]-10,11-dihydro-5H-pyrrolo[2,1-c][1,4]benzodiazepine-3-carboxamide]", "IC50": 4.09}, {"molecule": "{(2S)-1-[(10-{[2-Methoxy-2(trifluoromethyl)[1,1′-biphenyl]-4-yl]carbonyl}-10,11-dihydro-5H-pyrrolo[2,1-c][1,4]benzodiazepin-3-yl)carbonyl]pyrrolidin-2-yl}-methanol [Example 36]", "IC50": 7.95}, {"molecule": "Cc1cc(C(=O)N2Cc3ccc(C(=O)N(C)C[C@@H]4OC(=O)O[C@H]4[C@H](O)[C@H]4COC(=O)O4)n3Cc3ccccc32)ccc1-c1ccccc1C(F)(F)F", "note": "[Example 12, N-[((4S,5S)-5-{(R)-Hydroxy[(4R)-2-oxo-1,3-dioxolan-4-yl]methyl}-2-oxo-1,3-dioxolan-4-yl)methyl]-N-methyl-10-{[2-methyl-2′-(trifluoromethyl)[1,1′-biphenyl]-4-yl]carbonyl}-10,11-dihydro-5H-pyrrolo[2,1-c]benzodiazepine-3-carboxamide]", "IC50": 4.27}, {"molecule": "Cc1cc(C(=O)N2Cc3ccc(C(=O)N4CCN(C[C@@H](O)CO)CC4)n3Cc3ccccc32)ccc1-c1ccccc1C(F)(F)F", "note": "[Example 6, (2R)-3-{4-[(10-{[2-Methyl-2′-trifluoromethyl-[1,1′-biphenyl]-4-yl]carbonyl}-10,11-dihydro-5H-pyrrolo[2,1-c][1,4]benzodiazepin-3-yl)carbonyl]piperazin-1-yl}propane-1,2-diol]", "IC50": 25.1}]}]}
